{"source": "patent US8207137B2", "about": "“Method of inhibiting angiogenesis or invasion or formation of metastases” (INSERM, priority 2001, dated 2012)", "tested_on": "CPAE cells (calf pulmonary artery endothelial cells)", "assay": "Adhesion of CPAE endothelial cells to fibrinogen, vitronectin and fibronectin", "assay_type": "cell-based, bovine", "protocol": "First technique: punctual incubation of the endothelial cells with AMEP during the test.\nThe CPAE were detached from the culture plates by incubation with 1.5 mM EDTA and resuspended at the rate of 5×10^5 cells/ml in the adhesion buffer (140 mM NaCl, 10 mM Hepes, 5 mM glucose, 5.4 mM KCl, 2 mM CaCl2, 1 mM MgCl2, 1 mM MnCl2, pH 7.4). […] Dutcher) that had been incubated in advance for one night at 4° C. with 50 μl of purified fibrinogen (40 μg/ml in PBS; Kabi), 10 μg/ml of vitronectin (Sigma); 30 μg/ml of fibronectin (Sigma) and 1% of BSA (bovine serum albumin) as negative control. After 20 minutes of incubation of the CPAE cells at 37° C., the plate was washed twice with 200 μl of adhesion buffer and the nonspecific sites were saturated with PBS supplemented with 1% of BSA for 1 hour at 37° C. The plate was then washed again twice with the adhesion buffer containing 1% of BSA. The nonadherent cells were eliminated by washing the wells three times with 200 μl of adhesion buffer plus 1% of BSA. Measurement of the phosphatase activity of the cells enabled quantification of the adherent cells. In brief, 100 μl of paranitrophenol phosphate (Sigma) at 3 mg/ml in the acetate buffer pH containing 0.1% of X100 Triton was added to the wells and incubated for 2 h at 37° C. The reaction was stopped by the addition of 1N NaOH. The release of paranitrophenol, which indicates the number of adherent cells, was measured after reading of the absorbance at 405 nm with an ELISA reader (Titertek Twinreader). […] The remainder of the protocol was identical to the that described above with the exception that no additional incubation of the cells with AMEP was performed.", "key": {"[1]": {"conditions": "cells incubated punctually for 30 minutes prior to adhesion test, 1.4-kDa peptide 1 μg/ml, AMEP 10 μg/ml (comparable molar concentration)"}, "[2]": {"conditions": "cells preincubated for 24 h, same molar concentration (AMEP 10 μg/ml, 1.4-kDa peptide 1 μg/ml)"}}}
{"substance": "AMEP: disintegrin domain of human metargidin (Met-420 to Glu-511, SEQ ID NO. 2), 91 amino acids, 9.7 kDa; recombinant or expressed in vivo by gene electrotransfer", "values": [{"measurement": "inhibition of adhesion of endothelial cells on fibrinogen", "setting": "[1]", "value": "no significant effect"}, {"measurement": "inhibition of adhesion of endothelial cells on vitronectin", "setting": "[1]", "value": "no significant effect"}, {"measurement": "inhibition of adhesion of endothelial cells on fibrinogen", "setting": "[2]", "value": 30, "unit": "%"}, {"measurement": "inhibition of adhesion of endothelial cells on fibronectin", "setting": "[2]", "value": 30, "unit": "%"}, {"measurement": "inhibition of adhesion of endothelial cells on vitronectin", "setting": "[2]", "value": 30, "unit": "%"}]}
